From patent publication US6953814B2, “Natural insect repellant” (Stratacor, Inc., priority 1997, dated 2005)
Like-named read-outs stand apart in the source and are kept apart here.

Columns and labels:
Vapor pressure = assay type: physicochemical; details: for Vol. (vapor pressure), (est): at 125° C., estimated or extrapolated from literature values
Aedes aegypti mosquitoes [1] = details: 0.31 mg/cm^2; cited from earlier work
Aedes aegypti [2] = details: 0.5 mg/cm^2 on the skin of man; cited from earlier work
mosquitoes = details: Hill et al. 1979; cited from earlier work
Aedes aegypti mosquitoes [3] = test: Mosquito repellency on gauze or polyester film (olfactometer); assay type: in vivo; details: Aedes aegypti, 0.05 h, cotton gauze or polyester film, 0.3 mg/cm^2, 3 minutes after application; read-out: Percent Repellency
Text: Olfactometer: A Fiensod and […] olfactometer, as modified by Bowen and Davis, measured the host-oriented flight response of female mosquitoes to volatile host emanations (Feinsod, F. M., and […]; An olfactometer for measuring host-seeking behavior of female Aedes aegypti (Diptera: Culicidae); J. Med. Entomol., 15: 282-285, 1979). The olfactometer (approximately 38 cm high) consisted of an upper and lower screened chamber with a closure between the chambers (FIG. 8). A fan placed above the upper chamber drew air through the apparatus at approximately 0.2 m/s. A temperature and humidity controlled chamber (5' wide by 6' long by 8' high) was constructed to house the test subject and the olfactometer. Rearing of Mosquitoes: A second environmental chamber, maintained at 27° C. and 80% humidity, was dedicated to the rearing of Aedes aegypti mosquitoes. […] Assays for Attraction of Mosquitoes to Human Subjects: A group of 30 volunteers, consisting of 14 females and 16 males and ranging in age from 24 to 68 years, was selected from the surrounding civilian population. Individuals were tested for their ability to attract Aedes aegypti mosquitoes contained in the olfactometer. Tests were conducted at a temperature of 27° C. and 50% relative humidity. […] A small fan was placed on top of the upper chamber to cause an air flow from the lower chamber to the upper chamber. A trial began when the closure between the upper and lower chamber was opened in the absence of a human host. […] This trial was repeated twice during a test session to obtain three replicates. Two additional test sessions, at time intervals of at least 1 week, were conducted to obtain at least 8-9 replicates for each of 24 subjects. Of the remaining 6 subjects, 3 were tested on two separate occasions for a total of 6 replicates per subject; 3 were tested on one occasion for a total of 3 replicates per subject. A total of 254 tests were conducted. Test compounds were dissolved in acetone or ethanol at a concentration of 150 mg/5 cc. Ethanol solutions of carboxylic acids were prepared just prior to use. Five hundred microliters of these solutions were applied to a 50 cm^2 circular area of a single layer of cotton gauze (Curity Curad gauze, Futuro Inc., Milford, Ohio) or nonwoven polyester film ([…], Inc.). The resultant dose was 0.3 mg/cm^2. […] The cup was attached to the bottom of the olfactometer (FIG. 8) so that air flowed through the stainless steel screen of the cup, through the treated gauze or film, and through the olfactometer. A volunteer's forearm was placed under the cup, so that air drawn into the cup and olfactometer was laden with human skin emanations. Tests were conducted as described in the preceding paragraph, “Assays for attraction of mosquitoes to human subjects”. Percent repellency was determined from the fraction of mosquitoes entering the lower chamber over a seven minute period. This assay is an approximate measure of the intrinsic repellency of a compound. Good repellency in this test is a necessary, but not sufficient, condition for good repellency on skin. Mosquito repellents must produce a vapor over the skin surface to confuse the host seeking behavior of the insect. However, volatilization must not be so great that the repellent action rapidly dissipates. Since volatilization from the skin will be different from an inanimate surface, skin tests are necessary to confirm that a compound will be a practical repellent.

Aedes aegypti mosquitoes [4] = test: Mosquito repellency on skin (olfactometer, human forearm); assay type: in vivo; details: for repellency immediately after application to skin, compared to DEET: FIG. 4; for Percent Repellency 2 h: 0.3 mg/cm^2, 2 h after application; for Percent Repellency 4 h: 0.3 mg/cm^2, 4 h after application
Text: Olfactometer: A Fiensod and Spielman olfactometer, as modified by Bowen and Davis, measured the host-oriented flight response of female mosquitoes to volatile host emanations (Feinsod, F. M., and A. Spielman; An olfactometer for measuring host-seeking behavior of female Aedes aegypti (Diptera: Culicidae); J. Med. Entomol., 15: 282-285, 1979). The olfactometer (approximately 38 cm high) consisted of an upper and lower screened chamber with a closure between the chambers (FIG. 8). A fan placed above the upper chamber drew air through the apparatus at approximately 0.2 m/s. A temperature and humidity controlled chamber (5′ wide by 6′ long by 8′ high) was constructed to house the test subject and the olfactometer.
Rearing of Mosquitoes: A second environmental chamber, maintained at 27° C. and 80% humidity, was dedicated to the rearing of Aedes aegypti mosquitoes. Routine shipments of eggs (American Biological Supply, Gainesville, Fla.) were used to maintain a continuous supply of adult 5-10 day old mosquitoes.
Assays for Attraction of Mosquitoes to Human Subjects: A group of 30 volunteers, consisting of 14 females and 16 males and ranging in age from 24 to 68 years, was selected from the surrounding civilian population. Individuals were tested for their ability to attract Aedes aegypti mosquitoes contained in the olfactometer. Tests were conducted at a temperature of 27° C. and 50% relative humidity. For each trial 15 avid adult female Aedes aegypti mosquitoes (5-10 days post-emergence) were placed in the upper chamber. A small fan was placed on top of the upper chamber to cause an air flow from the lower chamber to the upper chamber. A trial began when the closure between the upper and lower chamber was opened in the absence of a human host. The number of mosquitoes entering the lower chamber within a 3 minute period was recorded. The volunteer then placed his or her arm beneath the lower chamber and the number of mosquitoes flying from the upper chamber to the lower chamber was recorded for the time intervals 0-1, 1-3, 3-5 and 5-7 minutes. This trial was repeated twice during a test session to obtain three replicates. Two additional test sessions, at time intervals of at least 1 week, were conducted to obtain at least 8-9 replicates for each of 24 subjects. Of the remaining 6 subjects, 3 were tested on two separate occasions for a total of 6 replicates per subject; 3 were tested on one occasion for a total of 3 replicates per subject. A total of 254 tests were conducted.
Test compounds were dissolved in acetone or ethanol at a concentration of 300 mg/5 cc. Ethanol solutions of carboxylic acids were prepared just prior to use. Three hundred and fifty microliters of these solutions were applied to a 70 cm^2 rectangular area of the forearm. The resultant dose was 0.3 mg/cm^2. The repellent treated area was allowed to dry for 5 minutes prior to test. The treated skin area was placed under the olfactometer and tests were conducted as described in the preceding paragraph, “Assays for attraction of mosquitoes to human subjects”. Percent repellency was determined from the fraction of mosquitoes entering the lower chamber over a seven minute period.
A commercial formulation of DEET (Skintastic, S. C. Johnson, Racine,) was applied to a 100 cm^2 area on the forearm of 1 volunteer (subject 02) to give a dose of 0.3 mg/cm^2 of DEET. A formulation of C8C9C10 (5% octanoic, 5% nonanoic, 5% decanoic in Dow Corning 345 volatile silicone fluid) was applied to a 100 cm^2 on the subject's other arm to give a dose of 0.3 mg/cm^2 total acids. Application sites were placed under the olfactometer at 1, 2 and 4 hours after treatment. Untreated areas on each arm were placed under the olfactometer at the completion of the treated area tests to check the avidity of the mosquitoes. Tests were done on four separate test days. […]

Aedes aegypti mosquitoes [5] = test: as above; assay type: in vivo; details: on skin
[6] = tested on: yellow fever mosquito (Aedes aegypti (L.)); details: human skin, approximately 2 mg/cm^2, time until two bites; DEET from Gilbert 1957; cited from earlier work
[7] = rabbit, in vivo; cited from earlier work
[8] = tested on: malaria mosquito (Anopheles quadrimaculatus Say); details: human skin, approximately 2 mg/cm^2, time until two bites; cited from earlier work
[9] = cited from earlier work
[10] = cited from earlier work; remark: listed apart in the source
Aedes aegypti [11] = details: King 1954; cited from earlier work

For CCCCCCCC=CC(=O)O [2-Decenoic acid], the “Vol. (vapor pressure), (est)” value (Vapor pressure) is listed as 2.4 (est) mm Hg, the “Protection time against Aedes aegypti mosquitoes” value (Aedes aegypti mosquitoes [1]) is listed as under 15 min and the “Protection Time” value (Aedes aegypti [2]) is listed as 6 ± 4 h.
In the case of CCCCCCCCCC=CC(=O)O [2-Dodecenoic Acid], the “Protection time against Aedes aegypti mosquitoes” value (Aedes aegypti mosquitoes [1]) is listed as 120 min.
For CCCC(O)C(CC)CO (centres unmarked) [2-Ethyl-1,3-hexanediol, reference compound], the “volatility relative to DEET” value (Vapor pressure; from vapor pressures of Table 7) is given as “twice as volatile as DEET” and the “protects against mosquitoes for” value (mosquitoes) is given as 3 to 4 h.
For CCCCCCC=CC(=O)O [2-Nonenoic Acid], the “Protection time against Aedes aegypti mosquitoes” value (Aedes aegypti mosquitoes [1]) is given as 120 min.
With CCCCCC=CC(=O)O [2-Octenoic acid, 2-Octenoic Acid] the “Vol. (vapor pressure), (est)” value (Vapor pressure) was 10.8 mm Hg, the pest or weed control at 0.3 mg/cm2 (Aedes aegypti mosquitoes [3]) was 97 ± 5% and the “repellency immediately after application to skin, compared to DEET” value (from here on “repellency immediately … compared to DEET”) (Aedes aegypti mosquitoes [4]) was “less repellent”. The “Percent Repellency 2 h” value (Aedes aegypti mosquitoes [4]; on skin) was 29 (1) % and the “Percent Repellency 4 h” value (Aedes aegypti mosquitoes [4]; on skin) was 27 (1) %.
In the case of CCC=CC(=O)O [2-Pentenoic acid, 2-Pentenoic Acid], the “Vol. (vapor pressure), (est)” value (Vapor pressure) is reported as 92 mm Hg and the pest or weed control at 0.3 mg/cm2 (Aedes aegypti mosquitoes [3]) is reported as 100%.
In the case of CCCCCC(C)=CC(=O)O [3-Methyl-2-octenoic acid], the “Vol. (vapor pressure), (est)” value (Vapor pressure) is reported as 6 (est) mm Hg, the pest or weed control at 0.3 mg/cm2 (Aedes aegypti mosquitoes [3]) is reported as 95% and the “Percent Repellency 2 h” value (Aedes aegypti mosquitoes [5]; 0.6 mg/cm^2, 2 h after application) is reported as 73% (1). For the same compound, the “Percent Repellency 4 h” value (Aedes aegypti mosquitoes [5]; 0.6 mg/cm^2, 4 h after application) was 40 (1) %, the “repellency immediately … compared to DEET” value (Aedes aegypti mosquitoes [4]) was “less repellent” and the “Percent Repellency 2 h” value (Aedes aegypti mosquitoes [4]; on skin) was 40 ± 5 (3) %. For the same compound, the “Percent Repellency 4 h” value (Aedes aegypti mosquitoes [4]; on skin) was 47 ± 21% and the “Percent Repellency 8 h” value (Aedes aegypti mosquitoes [4]; on skin, 0.3 mg/cm^2, 8 h after application) was 60%.
For CCC(C)=CC(=O)O [3-Methyl-2-pentenoic acid, 3-Methyl-2-pentenoic Acid], the “Vol. (vapor pressure), (est)” value (Vapor pressure) was 49.5 mm Hg and the pest or weed control at 0.3 mg/cm2 (Aedes aegypti mosquitoes [3]) was 65%.
With CCC(C)CC(=O)O (centres unmarked) [3-Methylpentanoic Acid] the “Vol. (vapor pressure), (est)” value (Vapor pressure) was 49.5 mm Hg and the pest or weed control at 0.3 mg/cm2 (Aedes aegypti mosquitoes [3]) was 43 ± 14%.
In the case of CCCCC/C=C\C/C=C\C/C=C\C/C=C\CCCC(=O)O [Arachidonic Acid], the “Protection time against Aedes aegypti mosquitoes” value (Aedes aegypti mosquitoes [1]) is listed as under 15 min.
For CCCCCCCCCC(=O)O [Decanoic acid], the “Protection time against yellow fever mosquitoes” value [6] is given as 300+ min, the Skin irritation [7] is given as “moderate to severe irritation” and the pest or weed control at 0.3 mg/cm2 (Aedes aegypti mosquitoes [3]) is given as 93 to 100%. The “Protection time against malaria mosquitoes” value [8] was 61 to 90 min, the “Percent Repellency 2 h” value (Aedes aegypti mosquitoes [4]; on skin) was 53 (1) % and the “Percent Repellency 4 h” value (Aedes aegypti mosquitoes [4]; on skin) was 73 (1) %.
With CCCCCCCCCCCC(=O)O [Dodecanoic acid] the “Vol. (vapor pressure), (est)” value (Vapor pressure) was 0.57 mm Hg.
In the case of CCCCCCC(=O)O [Ethanthic, ethanthic acid, reference compound], the “Protection time against yellow fever mosquitoes” value [6] is given as 121 to 180 min and the “Protection time against malaria mosquitoes” value [8] is given as 90+ min.
For CCCCC/C=C\C/C=C\CCCCCCCC(=O)O [Linoleic Acid], the “Protection time against Aedes aegypti mosquitoes” value (Aedes aegypti mosquitoes [1]) is given as under 15 min.
For CCCCCCCCC(=O)O [Nonanoic acid], the “Irritation or sensitization reactions” value ([9]; in vivo) is given as “no irritation or sensitization reactions”, the Erythema ([10]; in vivo) is given as “Erythema was observed” and the “Protection time against yellow fever mosquitoes” value [6] is given as 180+ min. The Skin irritation [7] was “moderate irritation”, the pest or weed control at 0.3 mg/cm2 (Aedes aegypti mosquitoes [3]) was 93 to 100% and the “Protection time against malaria mosquitoes” value [8] was 31 to 60 min. For the same compound, the “repellency two hours after skin application, ranking” value (Aedes aegypti mosquitoes [4]; FIG. 5) was “highest repellency”, the “Percent Repellency 2 h” value (Aedes aegypti mosquitoes [4]; on skin) was 66 (1) % and the “Percent Repellency 4 h” value (Aedes aegypti mosquitoes [4]; on skin) was 47 (1) %.
In the case of CCCCCCCC(=O)O [Octanoic acid], the “Irritation or sensitization reactions” value ([9]; 1% in petrolatum, skin of human subjects) is listed as “no irritation or sensitization reactions”, the Erythema ([10]; repeated applications of 0.5 M propanol solutions, occlusive, human males) is listed as “Erythema was observed” and the Skin irritation [7] is listed as “moderate to severe irritation”. For the same compound, the pest or weed control at 0.3 mg/cm2 (Aedes aegypti mosquitoes [3]) was 87 ± 1%, the “repellency immediately … compared to DEET” value (Aedes aegypti mosquitoes [4]) was “comparable to DEET” and the “Percent Repellency 2 h” value (Aedes aegypti mosquitoes [4]; on skin) was 36 (1) %. For the same compound, the “Percent Repellency 2 h” value (Aedes aegypti mosquitoes [4]; on skin, listed as octanoic acid) was 36%.
For CCCCCCCC/C=C\CCCCCCCC(=O)O [Oleic Acid], the “Protection time against Aedes aegypti mosquitoes” value (Aedes aegypti mosquitoes [1]) is given as under 15 min.
In the case of CCCCCCCCCCC(=O)O [Undecanoic acid], the “Vol. (vapor pressure), (est)” value (Vapor pressure) is given as 1.5 (est) mm Hg, the “Protection time against yellow fever mosquitoes” value [6] is given as 300+ min and the pest or weed control at 0.3 mg/cm2 (Aedes aegypti mosquitoes [3]) is given as 93 to 100%. For the same compound, the “Protection time against malaria mosquitoes” value [8] was 90+ min.
In the case of C=CCCCCCCCCC(=O)O [Undecylenic Acid], the “Protection time against Aedes aegypti mosquitoes” value (Aedes aegypti mosquitoes [1]) is given as 210 min.
O=C1CCCCN1 [Valerolactam] showed a pest or weed control at 0.3 mg/cm2 (Aedes aegypti mosquitoes [3]) of 20%.
For O=C(c1ccccc1)c1ccccc1 [benzophenone], the “repellent to Aedes aegypti” value (Aedes aegypti [11]) is listed as “repellent”.
In the case of CC(C)OC(=O)CCCCC(=O)OC(C)C [diisopropyl adipate], the “repellent to Aedes aegypti” value (Aedes aegypti [11]) is given as “repellent”.
